Here are results for two compounds from patent publication US8754121B2, “Use of deoxyelephantopin (DET) and analogues thereof for treatment of melanoma” (priority 2010, dated 2014).

Where two headings read alike, the source gives them in different places.

Series [1] has as its system B16 melanoma cells. In words: Cell cycle analysis by flow cytometry (sub-G1 fraction). Format: cell-based, murine. The conditions noted are these: 24 h, data not shown. On the procedure: Both adherent and floating cells were collected, washed with PBS and fixed with 1 mL of ice-cold 70% ethanol overnight at 4° C.
On the technique in general: Flow cytometry measures light scatter and fluorescence of single cells or particles in a stream.

The conditions of series [2]: Day 21.
Method: Female C57BL/6J mice (National Laboratory Animal Center, Tainan, Taiwan) were given a standard laboratory diet and distilled water ad libitum and kept on a 12-h light/dark cycle at 22±2° C. In total, 63 mice were randomly divided and assigned into 7 groups. Female C57BL/6J mice received an intravenous (i.v) injection with 1×10^5 B16 cells in 200 μL PBS through the tail vein at Day 0. On Day 1, mice were divided into tumor group, CP2 group, DET10 group, DET10+CP1 group, and CP2→DET10 group. The mice were treated intraperitoneally (i.p.) every two days with 2 mg/kg body weight (BW) cisplatin (CP2), 10 mg/kg BW DET (DET10), DET10 mixed with 1 mg/kg BW cisplatin (DET10+CP1), and with CP2 five times and DET10 five times, then CP2 and DET10 taking turns every two days till the end of the experiments (CP2→DET10 group), respectively. The Pre-DET10 group mice were treated i.p with DET (10 mg/kg BW) every two days two weeks before (Day 14) tumor cells inoculation on Day 0, and continuously treated with DET10 till the end of the experiment. The tumor control mice were treated with vehicle DMSO. The mice in the sham control group were injected i.p. with 20 μL DMSO on Day 1 every 2 days throughout the experimental period. […] On Day 21 post-tumor injection, three mice from each group were euthanized and blood collected for complete blood count (CBC) analysis.
Complete blood samples of test mice in each group on Day 21 were subjected to the analysis of white blood cell (WBC), neutrophil (N), monocyte (M), basophil (B) red blood cell (RBC), platelet (PLT), hemoglobin (Hb), and hematocrit (Ht) and other cell counts with a hemacytometer (FIG. 10).
Series [3] has as its system B16 melanoma cells. The series can be described thus: MTT cell viability assay, B16 cell proliferation. The class given is cell-based, murine. As to conditions: 24 h, 37° C., read-out: IC50, inhibition of B16 cell proliferation. As to the method:
Human melanocytes and murine B16 melanoma cells obtained from the American Type Culture Collection (ATCC®, MD) were grown overnight in a 10-mm petri-dish at 37° C. in MEM and RPMI medium 1640, respectively, supplemented with 10% heat-inactivated FBS, 100 units/mL penicillin, and 100 μg/mL streptomycin, in a humidified 5% CO2 incubator. Cell viability was measured by MTT-based colorimetric assay. The formula to calculate viable cell (%) is as follows: Cell viability (%)=(sample OD550/control OD550)×100% Synergism of DET and Cisplatin

A further series has as its system B16 cells. The series can be described thus: Time-lapse cell motility assay. Format: cell-based, murine. The conditions noted are these: time-lapse videomicroscopy over 24 h, 3 μM DET, 40 μM CP, 3 μM DET plus 40 μM CP; for migration velocity of B16 cells: vehicle control 0.35±0.09; for migration distance of B16 cells: vehicle control 488.2±147.1. As to the method: Cell motility was assessed by time-lapse videomicroscopy. B16 cells were seeded in 6 cm dish for 3 h and maintained at constant temperature (37° C.) and 5% CO2 chamber throughout the experimental period. Cells were observed under an inverted microscope (Zeiss Axiovert 200M), and phase-contrast snap photographs (one frame every 30 min) were digitally recorded for 24 h. Cell paths were generated from centroid positions, and cell velocities of migration were analyzed using the tracking object of the Metamorph software (Molecular Device).

Series [4] can be described thus: Primary metabolome of kidney tissues by UPLC/ESI-Q-TOF MS. The class given is in vivo, C57BL/6J mice. On the procedure: Primary metabolome in the kidney tissues of test mice with various treatments were analyzed using UPLC-QTOF MS. Kidney samples (150 mg) were homogenized with 600 μL methanol and 127.5 μL distilled water. The homogenates were vigorously mixed with 1.2 mL chloroform:H2O solution (1:1, v/v) and then put at −20° C. for 20 min. After centrifugation at 13000×g for 10 min at 4° C., the supernatant (water layer) was collected, dried in a vacuum, and then reconstituted in 100 μL of 50% methanol for analysis.
LC-MS was performed with a LC system (ACQUITY UPLC, Waters, Millford, Mass.) coupled to a hybrid Q-TOF mass spectrometer (Synapt HDMS, Waters, Manchester, U.K.). The sample was separated online with a reverse-phase column (HSS T3 C18, 1.8 μm, 2.1 mm×150 mm, Waters, Milford, Mass.) which was kept in a column oven at 40° C. The mobile phases for positive ion mode consisted of 0.1% formic acid in 2% ACN (buffer A) and 0.1% formic acid in 100% ACN (buffer B). The mobile phases for negative ion mode consisted of pure H2O (buffer A) and pure 100% AcCN (buffer B).
The mass spectrometer equipped with lock electrospray ionization probe was operated in both positive and negative (ESI) modes. The electrospray voltage was set at 3 kV for positive ion mode and −2.5 kV for negative ion mode, and the cone voltage was 40V. The cone and desolvation gas flow were 50 and 700 L/h, respectively. A lock mass calibration of sulfadimethoxin (0.5 mg/L) in water/MeOH (50:50, v/v) was introduce by the HPLC pump (LC-10ATVP, Shimadzu, Japan) and split the 5 μL/min to the lockspray probe. The acquisition method was set to one full MS scan (50-990 m/z) with 0.2 sec scan time in centroid data mode.
The UPLC-MS data were analyzed using MarkerLynx XS version 4.1 SCN639 (Waters, Millford, Mass.). In this application, the peaks in the 0.5-4 min LC-MS data were detected and the noise reduced in both LC and MS domains. The extracted peak information was also processed to remove the peak-to-peak noise, deisotope and filter the MS peak with the intensity lower than 50 counts. A list of the intensities of the processed peaks for each of the LC-MS data was generated using retention time (RT) and m/z data pairs as the identifier of each peak. The processed data for each sample were combined and aligned for each of the RT-m/z pair to generate the final data table. The ion intensities for each peak were then normalized within each sample and the 3-dimensional data, peak identifier (RT-m/z pair), sample name, and ion intensity were analyzed by principle component analysis (PCA). Partial least-squares-discriminant analysis (PLS-DA), a supervised chemometric procedure, was used to define the maximum classification and separation of independent samples.

For series [5] the following is noted: for plasma BUN: groups CP2 and DET10+CP1.
Method: (§1) Female C57BL/6J mice (National Laboratory Animal Center, Tainan, Taiwan) were given a standard laboratory diet and distilled water ad libitum and kept on a 12-h light/dark cycle at 22±2° C. In total, 63 mice were randomly divided and assigned into 7 groups. Female C57BL/6J mice received an intravenous (i.v) injection with 1×10^5 B16 cells in 200 μL PBS through the tail vein at Day 0. On Day 1, mice were divided into tumor group, CP2 group, DET10 group, DET10+CP1 group, and CP2→DET10 group. The mice were treated intraperitoneally (i.p.) every two days with 2 mg/kg body weight (BW) cisplatin (CP2), 10 mg/kg BW DET (DET10), DET10 mixed with 1 mg/kg BW cisplatin (DET10+CP1), and with CP2 five times and DET10 five times, then CP2 and DET10 taking turns every two days till the end of the experiments (CP2→DET10 group), respectively. The Pre-DET10 group mice were treated i.p with DET (10 mg/kg BW) every two days two weeks before (Day 14) tumor cells inoculation on Day 0, and continuously treated with DET10 till the end of the experiment. The tumor control mice were treated with vehicle DMSO. The mice in the sham control group were injected i.p. with 20 μL DMSO on Day 1 every 2 days throughout the experimental period.
The plasma BUN content, an indication of kidney function, was determined in test animals using QuantiChrom™ Urea Kit (BioAssay Systems).
For series [6], the system named is metastatic B16 melanoma tumors. The series can be described thus: Survival of mice carrying metastatic B16 melanoma. The class given is in vivo, C57BL/6J mice. The conditions noted are these: tumor control 33 days. As to the method: All data were expressed as means±SD. For the survival data, the log-rank test was used to determine differences among tumor control, drug and compound treated groups. For other experiments, differences between treatments were determined by ANOVA. A P<0.05 is considered statistically significant.

Series [7] is described as follows: Histology, TUNEL and F4/80 immunostaining of kidney tissues.
Method: as §1
Paraffin-embedded kidney tissues were prepared from three mice in each group on Day 21. The paraffin-embedded kidney was sectioned (4 μm) and underwent H&E staining. In situ apoptotic cells in kidney tissues were determined by TUNEL assay (Chemicon) and the mean proportions of positive TUNEL cells were measured using AxioVision software (Carl Zeiss MicroImaging, Inc.). Immunostaining of macrophage infiltration in the kidney tissues was performed using F4/80 antibody and visualized with goat anti-mouse Cy3-labeled secondary antibodies (Jackson ImmunoResearch), counterstained with DAPI (1 μg/mL).
Series [8] has as its system B16 melanoma cells. The series can be described thus: Migration and invasion assay (trans-well). The class given is cell-based, murine. As to conditions: 24 h; for B16 melanoma cell invasion: Matrigel. As to the method: B16 cells (1×10^5 cells) were cultured in culture-inserts of boyden chamber (ibidi, Germany) for 12 h. The culture-inserts were removed and added DET or cisplatin alone or in combination for 24 h. B16 cells were added into a 24-transwell permeable plate (8.0 μm polycarbonate membrane, 6.5 mm insert; Corning Incorporated, Corning, N.Y.) coated with Matrigel basement membrane matrix. The bottom wells received 50 μL medium having the same concentration of serum as the top well, either 1% or 10% FBS. Cells were removed from the upper and lower sides of the filter after 24 h. The ratio of the counts obtained from the bottom versus total counts from both sides was used to determine migration and invasiveness. The invading cells remaining in the well were counted in six randomly chosen low-power fields at 100× original magnification by inverted fluorescence microscopy.

Series [9] deals with lung metastasis of B16 melanoma (B16-COX-2/Luc cells). The series can be described thus: Inhibition of lung metastasis of B16 cells in syngeneic mice, in vivo bioluminescence imaging. As to conditions: for mean bioluminescence intensity compared to tumor group (100%): Day 30; for remained bioluminescence intensity relative to tumor control group (100%): Day 21. More on the design: species or system C57BL/6J mice. On the procedure:
Stable B16 melanoma cell clone carrying COX-2 promoter driven-luciferase (pGL-COX-2/Luc) reporter gene plasmid was established. […] The B16-COX-2/Luc stable cell line was used in the mouse lung metastasis experiments.
After 10 minutes of incubation with luciferin, each mouse was placed in a right lateral decubitus position and a digital grayscale animal image was acquired using an IVIS spectrum (Xenogen Corp.). The acquisition and overlay of a pseudocolor image was taken, which represents the spatial distribution of detected photons emerging from active luciferase within the animals. Signal intensity was quantified using an IVIS Spectrum system (Xenogen Corp.) as the sum of all detected photons per second on Day 0, 7, 14, 18, 21, 23, 26 and 30 of treatment.

Series [10] in a line: Body weight of B16 tumor-bearing mice. The class given is in vivo, C57BL/6J mice. As to conditions: groups CP2 (cisplatin 2 mg/kg BW) and DET10+CP1, i.p. every two days; P<0.05.
Method: Female C57BL/6J mice (National Laboratory Animal Center, Tainan, Taiwan) were given a standard laboratory diet and distilled water ad libitum and kept on a 12-h light/dark cycle at 22±2° C. In total, 63 mice were randomly divided and assigned into 7 groups. Female C57BL/6J mice received an intravenous (i.v) injection with 1×10^5 B16 cells in 200 μL PBS through the tail vein at Day 0. On Day 1, mice were divided into tumor group, CP2 group, DET10 group, DET10+CP1 group, and CP2→DET10 group. The mice were treated intraperitoneally (i.p.) every two days with 2 mg/kg body weight (BW) cisplatin (CP2), 10 mg/kg BW DET (DET10), DET10 mixed with 1 mg/kg BW cisplatin (DET10+CP1), and with CP2 five times and DET10 five times, then CP2 and DET10 taking turns every two days till the end of the experiments (CP2→DET10 group), respectively. The Pre-DET10 group mice were treated i.p with DET (10 mg/kg BW) every two days two weeks before (Day 14) tumor cells inoculation on Day 0, and continuously treated with DET10 till the end of the experiment. The tumor control mice were treated with vehicle DMSO. The mice in the sham control group were injected i.p. with 20 μL DMSO on Day 1 every 2 days throughout the experimental period. Tumor volumes were measured every 3 days and the body weight recorded once a week.
For the next series, the system named is Human melanocytes. In words: MTT cell viability assay, normal melanocytes. Format: cell-based. As to conditions: 24 h. As to the method: Cell viability was measured by MTT-based colorimetric assay.
For orientation: Tetrazolium assays rely on reduction of a dye to a coloured formazan, in cell work by metabolically active cells.

Where [11] appears, read: i.p. every two days from Day 1, groups CP2, DET10, DET10+CP1, CP2→DET10.
The mark [12] stands for this setting: Day 21, groups CP2, DET10, DET10+CP1, CP2→DET10, i.p. every two days from Day 1.
Where [13] appears, read: groups CP2, DET10, DET10+CP1, CP2→DET10, compared with control tumor-bearing group.
Where [14] appears, read: i.p. every two days from Day 1, groups CP2 (cisplatin 2 mg/kg BW), DET10 (DET 10 mg/kg BW), DET10+CP1, CP2→DET10.
Setting [15] is: pre-DET and DET groups, assignment to group unclear.
The mark [16] stands for this setting: Pre-DET10 group: DET 10 mg/kg BW i.p. every two days from two weeks before tumor inoculation to end.

As to `N.N.[Cl][Pt][Cl]` [CP, cis-diamminedichloroplatinum(II), reference compound], in the series with B16 melanoma cells [1], the “sub-G1 (apoptotic) cell fraction” value was 9%. In [2] (CP2 group), the “neutrophil population, times higher than the sham control” value is recorded as 3.5 times and the “neutrophil population, times higher than the tumor group” value turned out to be 2.55 times. In series [2] (groups CP2 and DET10), the “effect on the peripheral blood cells profile (haematological toxicity)” value was “severe haematological toxicity”. Moreover, the IC50 with B16 melanoma cells [3] came out at 45 µM. In the series on B16 cells, the “migration velocity of B16 cells” value is on record as 0.26±0.14 μm/min and the “migration distance of B16 cells” value amounted to 376.6±100 μm. Also, in series [4] (CP2 group), the “decrease in alanine, aspartate, phenylalanine, and tryptophan in kidney tissues, in comparison with the sham control” value was 1.7- to 2.4 fold; the “increase in pyruvate, citrulline, creatine, uric acid, hippuric acid, and 5-HIAA in kidney tissues, in comparison with the sham control” value is given as 1.6- to 12.5 fold. Also, the “increase in 5-HIAA in kidney tissues” value in series [4] (groups CP alone, DET+CP, CP→DET) is listed as 8.6 fold. Also, the “plasma BUN” value in series [5] (Day 14, sham control 25.4±4.1) was 61.1 ± 4.3 mg/dL. Besides, in series [5] (Day 21, sham control 25.1±4.1), the “plasma BUN” value worked out at 67.3 ± 0.1 mg/dL. Also, the median survival in [6] (setting [11]) is given as 43 days. Moreover, in series [7] (Day 21, CP2 group, cisplatin 2 mg/kg BW i.p. every two days), the “H&E staining of kidney tissues” value was “severe glomerular congestion and tubular epithelial atrophy”. For the same compound, the “TUNEL-positive (apoptotic) cells in renal tissues” value in series [7] (setting [12]) is recorded as “observed mostly”. In addition, the “macrophage/monocyte infiltration in renal tissues (F4/80 immunostaining)” value in [7] (setting [13]) is reported as “much significant”. In addition, in the series with B16 melanoma cells [8], the “B16 melanoma cell migration” value was “inhibited” and the “B16 melanoma cell invasion” value was “inhibited”. Besides, the “mean bioluminescence intensity compared to tumor group (100%)” value in [9] (setting [14]) is given as 2%. Besides, the “body weight of test mice” value in [10] was “significantly decreased”.
On to `C=C(C)C(=O)O[C@H]1CC2=C[C@@H](C/C(C)=C/[C@H]3OC(=O)C(=C)[C@H]13)OC2=O` [DET, deoxyelephantopin], for which the “sub-G1 (apoptotic) cell fraction” value in the series on B16 melanoma cells [1] is recorded as 8.5%. Moreover, the “effect on the peripheral blood cells profile (haematological toxicity)” value is listed as “did not cause deleterious effect” in series [2] (Pre-DET10 group); “did not cause deleterious effect” in [2] (groups CP2 and DET10). Also, in series [2] (groups DET10, DET10+CP1, CP2→DET10), the “levels of neutrophil (N) counts” value is reported as “Increase levels”. Also, the IC50 with B16 melanoma cells [3] is 4.5 µM. For the same compound, the “migration velocity of B16 cells” value in the series on B16 cells was found to be 0.16±0.06 μm/min. Besides, in the series on B16 cells, the “migration distance of B16 cells” value is on record as 224.1±85.9 μm. In addition, the “increase in carnitine in kidney tissues” value in series [4] (setting [15]) came to 2.3 fold. For the same compound, the “increase in pyruvate in kidney tissues” value in [4] (setting [15]) was found to be 1.6 fold. Further, the “increase in taurine in kidney tissues” value in [4] (setting [15]) is recorded as 2.1 fold. For the same compound, the “change of BUN level compared to the sham control group” value is given as “little or no detectable changes” in [5] (DET10 group, DET 10 mg/kg BW i.p. every two days from Day 1) and “little or no detectable changes” in series [5] (Pre-DET10 group, DET 10 mg/kg BW from two weeks before tumor inoculation). The median survival in series [6] (Pre-DET10 group: DET 10 mg/kg BW i.p. from two weeks before tumor inoculation) is 43 days; in series [6] (setting [11]), 39 days. In addition, the “TUNEL-positive (apoptotic) cells in renal tissues” value in series [7] (Day 21, Pre-DET10 group, DET 10 mg/kg BW from two weeks before tumor inoculation) is reported as “not detectable”; in series [7] (setting [12]) it was “not detectable”. The “macrophage/monocyte infiltration in renal tissues (F4/80 immunostaining)” value in series [7] (Pre-DET10 group) and in series [7] (setting [13]) was “little or no detectable inflammatory cell infiltration” in each case. Besides, the “B16 melanoma cell migration” value with B16 melanoma cells [8] is on record as “inhibited”. Also, the “B16 melanoma cell invasion” value with B16 melanoma cells [8] is reported as “inhibited”. The “remained bioluminescence intensity relative to tumor control group (100%)” value in series [9] (setting [16]) was determined as 15%; in [9] (setting [14]), 49%. In addition, the “mean bioluminescence intensity compared to tumor group (100%)” value in series [9] (setting [16]) turned out to be 23%; in [9] (setting [14]) it was 45%. Further, in the series with Human melanocytes, the “toxicity on normal human melanocytes” value is “little or no toxicity”.
